Results published in US8518947B2, “(Heterocycle/tetrahydropyridine)-(piperazinyl)-1-alcanone and (heterocycle/dihydropyrrolidine)-(piperazinyl)-1-alcanone derivatives, and use thereof as p75 inhibitors” (Sanofi, priority 2009, dated 2013).
Counter-ions that a name gives are not always drawn.

SMILES	melting point [°C]
Cc1cc2cc(C3=CCN(C(=O)CN4CC5CCC(C4)N5c4ccc(C(=O)OC5CCC5)cn4)CC3)ccc2s1	153 to 154
O=C(CN1CCN(c2cccc(Cl)n2)CC1)N1CC=C(c2cccc3ccsc23)CC1 [Compound 107, 1-(4-benzo[b]thiophen-7-yl-3,6-dihydro-2H-pyridin-1-yl)-2-[4-(6-chloropyridin-2-yl)piperazin-1-yl]ethanone]	92 to 93
COC(=O)c1ccc(N2C3CCC2CN(CC(=O)N2CC=C(c4cccc5ccoc45)C2)C3)nc1	169 to 170
O=C(CN1CCN(c2ccc(C(F)(F)F)cn2)CC1)N1CC=C(c2ccc3sccc3c2)CC1 [Compound 46, 1-(4-benzo[b]thiophen-5-yl-3,6-dihydro-2H-pyridin-1-yl)-2-[4-(5-trifluoromethylpyridin-2-yl)piperazin-1-yl)ethanone]	170 to 171
C[C@@H]1CN(c2ccc(C(=O)O)cn2)C[C@H](C)N1CC(=O)N1CC=C(c2cccc3ccoc23)CC1 [Compound 57, 6-{(3S,5R)-4-[2-(4-benzofuran-7-yl-3,6-dihydro-2H-pyridin-1-yl)-2-oxoethyl]-3,5-dimethylpiperazin-1-yl}nicotinic acid]	272 to 274
O=C(CN1CCN(c2ccc(C(F)(F)F)cn2)CC1)N1CC=C(c2cccc3ccoc23)CC1 [Compound 33, 1-(4-benzofuran-7-yl-3,6-dihydro-2H-pyridin-1-yl)-2-[4-(5-trifluoromethylpyridin-2-yl)piperazin-1-yl]ethanone]	155 to 156
O=C(CN1CCN(c2ccc(C(F)(F)F)cn2)C(=O)C1)N1CC=C(c2ccc3occc3c2)CC1 [Compound 60, 4-[2-(4-benzofuran-5-yl-3,6-dihydro-2H-pyridin-1-yl)-2-oxoethyl]-1-(5-trifluoromethylpyridin-2-yl)piperazin-2-one]	154 to 155
COC(=O)c1ccc(N2C3CCC2CN(CC(=O)N2CC=C(c4ccc5c(c4)OCCO5)CC2)C3)nc1	172 to 174
C[C@@H]1CN(c2ccc(-c3nnn(C)n3)cn2)C[C@H](C)N1CC(=O)N1CC=C(c2cccc3ccoc23)CC1 (as salt: oxalate) [Compound 120, 1-(4-benzofuran-7-yl-3,6-dihydro-2H-pyridin-1-yl)-2-{(2S,6R)-2,6-dimethyl-4-[5-(2-methyl-2H-tetrazol-5-yl)pyridin-2-yl]piperazin-1-yl}ethanone]	165 to 170
O=C(CN1CCCN(c2cccnc2)CC1)N1CC=C(c2cccc3ccoc23)CC1 (as salt: oxalate) [Compound 78, 1-(4-benzofuran-7-yl-3,6-dihydro-2H-pyridin-1-yl)-2-(4-pyridin-3-yl-[1,4]diazepan-1-yl)ethanone]	100 to 101
Cc1cc2cc(C3=CCN(C(=O)CN4CCN(c5ccc6ccccc6n5)CC4)CC3)ccc2s1 [Compound 114, 1-[4-(2-methylbenzo[b]thiophen-5-yl)-3,6-dihydro-2H-pyridin-1-yl]-2-(4-quinolin-2-ylpiperazin-1-yl)ethanone]	189 to 190
O=C(CN1CCN(c2ccc(C(F)(F)F)cn2)C(=O)C1)N1CC=C(c2cccc3ccoc23)CC1 [Compound 32, 4-[2-(4-benzofuran-7-yl-3,6-dihydro-2H-pyridin-1-yl)-2-oxoethyl]-1-(5-trifluoromethylpyridin-2-yl)piperazin-2-one]	151 to 152
COC(=O)c1cc2cccc(C3=CCN(C(=O)CN4[C@H](C)CN(c5ccc(C(F)(F)F)cn5)C[C@@H]4C)CC3)c2s1 (as salt: HCl) [Compound 66, Methyl 7-(1-{2-[(2S,6R)-2,6-dimethyl-4-(5-trifluoromethylpyridin-2-yl)piperazin-1-yl]acetyl}-1,2,3,6-tetrahydropyridin-4-yl)benzo[b]thiophene-2-carboxylate]	138 to 141
Cn1nnnc1-c1ccc(N2C3CCC2CN(CC(=O)N2CC=C(c4cccc5ccoc45)CC2)C3)nc1	178 to 180
C[C@@H]1CN(c2ncc(F)cn2)C[C@H](C)N1CC(=O)N1CC=C(c2c[nH]c3ccccc23)CC1 [Compound 100, 2-[(2S,6R)-4-(5-fluoropyrimidin-2-yl)-2,6-dimethylpiperazin-1-yl]-1-[4-(1H-indol-3-yl)-3,6-dihydro-2H-pyridin-1-yl]ethanone]	235 to 237
COC(=O)c1ccc(N2C3CCC2CN(CC(=O)N2CC=C(c4ccc5sc(C)cc5c4)CC2)C3)nc1	179 to 180
O=C(CN1CC2CCC(C1)N2c1ncc(F)cn1)N1CC=C(c2cccc3ccoc23)CC1	157 to 158
C[C@@H]1CN(c2ccc3ccccc3n2)C[C@H](C)N1CC(=O)N1CC=C(c2c[nH]c3ccccc23)CC1 [Compound 110, 2-((2S,6R)-2,6-dimethyl-4-quinolin-2-yl-piperazin-1-yl)-1-[4-(1H-indol-3-yl)-3,6-dihydro-2H-pyridin-1-yl]ethanone]	198 to 200
O=C(CN1CCN(c2ccc3ccccc3n2)CC1)N1CC=C(c2cccc3ccsc23)CC1 [Compound 105, 1-(4-benzo[b]thiophen-7-yl-3,6-dihydro-2H-pyridin-1-yl)-2-(4-quinolin-2-ylpiperazin-1-yl)ethanone]	177 to 178
C[C@@H]1CN(c2ccc3ccccc3n2)C[C@H](C)N1CC(=O)N1CC=C(c2cccc3ccsc23)CC1 (as salt: HCl) [Compound 19, 1-(4-benzo[b]thiophen-7-yl-3,6-dihydro-2H-pyridin-1-yl)-2-((2S,6R)-2,6-dimethyl-4-quinolin-2-ylpiperazin-1-yl)ethanone]	192 to 193

SMILES	melting point [°C]
C[C@@H]1CN(c2cncnc2)C[C@H](C)N1CC(=O)N1CC=C(c2cccc3ccsc23)CC1 [Compound 55, 1-(4-benzo[b]thiophen-7-yl-3,6-dihydro-2H-pyridin-1-yl)-2-((2S,6R)-2,6-dimethyl-4-pyrimidin-5-ylpiperazin-1-yl)ethanone]	195 to 196
CCCc1cc2cc(C3=CCN(C(=O)CN4[C@H](C)CN(c5ccc(C(F)(F)F)cn5)C[C@@H]4C)CC3)ccc2s1 [Compound 68, 2-[(2S,6R)-2,6-dimethyl-4-(5-trifluoromethylpyridin-2-yl)piperazin-1-yl]-1-[4-(2-propylbenzo[b]thiophen-5-yl)-3,6-dihydro-2H-pyridin-1-yl]ethanone]	157 to 159
COC(=O)c1ccc(N2C3CCC2CN(CC(=O)N2CC=C(c4nccc5sccc45)CC2)C3)nc1	170 to 171
O=C(CN1CC2CCC(C1)N2c1ccc(-c2noc(=O)[nH]2)cn1)N1CC=C(c2cccc3ccoc23)CC1	230 to 232
O=C(CN1CC2CCC(C1)N2c1ncc(F)cn1)N1CC=C(c2cccc3ccsc23)CC1	112 to 113
O=C(O)c1ccc(N2C3CCC2CN(CC(=O)N2CC=C(c4cccc5ccoc45)C2)C3)nc1	188 to 189
O=C(CN1CCN(c2ccnc3cc(Cl)ccc23)CC1)N1CC=C(c2cccc3ccoc23)CC1 (as salt: oxalate) [Compound 99, 1-(4-benzofuran-7-yl-3,6-dihydro-2H-pyridin-1-yl)-2-[4-(7-chloroquinolin-4-yl)piperazin-1-yl]ethanone]	99 to 100
C[C@@H]1CN(c2cncnc2)C[C@H](C)N1CC(=O)N1CC=C(c2cccc3ccoc23)CC1 [Compound 35, 1-(4-benzofuran-7-yl-3,6-dihydro-2H-pyridin-1-yl)-2-((2S,6R)-2,6-dimethyl-4-pyrimidin-5-ylpiperazin-1-yl)ethanone]	142 to 143
O=C(CN1CC2CCC(C1)N2c1ncc(F)cn1)N1CC=C(c2coc3ccccc23)CC1	207 to 210
COC(=O)c1ccc(N2C3CCC2CN(CC(=O)N2CC=C(c4cccc5ccsc45)CC2)C3)nc1	153 to 154
Cc1cc2cc(C3=CCN(C(=O)CN4CCN(c5ccnc6cc(Cl)ccc56)CC4)CC3)ccc2s1 [Compound 117, 2-[4-(7-chloroquinolin-4-yl)piperazin-1-yl]-1-[4-(2-methylbenzo[b]thiophen-5-yl)-3,6-dihydro-2H-pyridin-1-yl]ethanone]	90 to 93
C[C@@H]1CN(c2ncc(F)cn2)C[C@H](C)N1CC(=O)N1CC=C(c2ccc3c(c2)OCCO3)CC1 (as salt: oxalate) [Compound 44, 1-[4-(2,3-dihydrobenzo[1,4]dioxin-6-yl)-3,6-dihydro-2H-pyridin-1-yl]-2-[(2S,6R)-4-(5-fluoropyrimidin-2-yl)-2,6-dimethylpiperazin-1-yl]ethanone]	90 to 91
O=C(CN1CCN(c2cccc(Br)n2)CC1)N1CC=C(c2cccc3ccsc23)CC1 [Compound 113, 1-(4-benzo[b]thiophen-7-yl-3,6-dihydro-2H-pyridin-1-yl)-2-[4-(6-bromopyridin-2-yl)piperazin-1-yl]ethanone]	80 to 81
O=C(CN1CCN(c2ccc(C(F)(F)F)cn2)CC1)N1CC=C(c2c[nH]c3ccccc23)CC1 [Compound 109, 1-[4-(1H-indol-3-yl)-3,6-dihydro-2H-pyridin-1-yl]-2-[4-(5-trifluoromethylpyridin-2-yl)piperazin-1-yl]ethanone]	220 to 222
Cc1cc2cc(C3=CCN(C(=O)CN4CC5CCC(C4)N5c4ccc(C(=O)O)cn4)CC3)ccc2s1	160 to 161
O=C(CN1CC2CCC(C1)N2c1ncc(F)cn1)N1CC=C(c2ccc3c(c2)OCCO3)CC1	163 to 165
O=C(CN1CCN(c2ccc(C(F)(F)F)cn2)CC1)N1CC=C(c2cccc3ccsc23)CC1 [Compound 50, 1-(4-benzo[b]thiophen-7-yl-3,6-dihydro-2H-pyridin-1-yl)-2-[4-(5-trifluoromethylpyridin-2-yl)piperazin-1-yl]ethanone]	120 to 121
O=C(CN1CCN(c2ccc(Cl)c(Cl)n2)CC1)N1CC=C(c2cccc3ccsc23)CC1 [Compound 112, 1-(4-benzo[b]thiophen-7-yl-3,6-dihydro-2H-pyridin-1-yl)-2-[4-(5,6-dichloropyridin-2-yl)piperazin-1-yl]ethanone]	89 to 90
C[C@@H]1CN(c2ccc(C(F)(F)F)cn2)C[C@H](C)N1CC(=O)N1CCC=C(c2cccc3ccoc23)C1 [Compound 63, 1-(5-benzofuran-7-yl-3,6-dihydro-2H-pyridin-1-yl)-2-[(2S,6R)-2,6-dimethyl-4-(5-trifluoromethylpyridin-2-yl)piperazin-1-yl]ethanone]	129 to 130
